Test results: PMC5515969, “Effects of 31 FDA approved small-molecule kinase inhibitors on isolated rat liver mitochondria” (Archives of Toxicology, 2016)
Read-outs that look alike come from different tables or passages of the source. Marks after values point to notes of the source that are not given here.

Key:
[1] = test system: isolated rat liver mitochondria; assay: Mitochondrial toxicity, any endpoint, intact mitochondria and submitochondrial particles; format: biochemical; details: for lowest concentration causing significant mitochondrial toxicity: any endpoint
Procedure: Rats were anesthetized by an intraperitoneal injection of Nembutal and the liver perfused with PBS to remove the blood. The liver was then cut into small pieces and homogenized using a Dounce type homogenizer in the ice-cold isolation buffer (IB) containing 200 mM sucrose, 10 mM Tris-MOPS, 1 mM EGTA (pH 7.4). The sample was then centrifuged at 600g for 10 min. The supernatant was further centrifuged at 7500g for 10 min, and the pellets was washed once with the IB and centrifuged again at 7500g for 10 min to collect mitochondria. […] Before drug treatment, the protein concentration was adjusted to 1 mg/ml using appropriate buffer. […] Briefly, mitochondrial and cytosolic fractions from four different preparations using four rats were diluted using the Laemmli protein loading buffer and subject to SDS-PAGE with 4–20% gradient gels. The proteins were blotted to PVDF membranes and detected using antibodies against GAPDH, ATP5A, UQCRC2, SDHB, and NDUFB8.
The aliquoted stock solutions were kept for less than one month and each tube was used only once. The KIs were added to the mitochondria at 1:1000 dilutions. […] The Cmax data were from clinical trials which used FDA recommend dosages, route of administration, and duration. […] The final concentration of DMSO for drug treatment was always 0.1%, and control treatments were 0.1% DMSO.

[2] = cited from earlier work
[3] = test system: isolated rat liver mitochondria; details: for lowest concentration causing cytochrome c release: rat, 30 min, pH 7.4
[4] = cited from earlier work; remark: listed apart in the source
[5] = test system: isolated rat liver mitochondria; assay: Mitochondrial ROS production (CM-H2DCFDA)
[6] = test system: isolated rat liver mitochondria; assay: Mitochondrial oxygen consumption (glutamate/malate or succinate driven, state 4 and state 3); format: biochemical; details: for Glutamate/malate driven respiration State 3 / Glutamate/malate driven respiration State 4 / Succinate-driven respiration State 3 / Succinate-driven respiration State 4: oxygen consumption, DMSO-treated = 1; as to State 3 respiration driven by succinate at 10XCmax: key: 0 indicates that the drug had no effects (negative); as to State 3 respiration driven by succinate at 1XCmax: key: 0 indicates that the drug had no effects (negative)
In short: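 Oxygen uptake on glutamate/malate or on succinate defined state 4; ADP added 3 min later gave state 3. Mitochondria isolated from rat liver by differential centrifugation, adjusted to 1 mg/ml and pretreated 5 min with inhibitor (0.1% DMSO final). Values relative to DMSO control, set to 1.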

RCC I = RCC I activity in submitochondrial particles; format: biochemical, rat; design: key to RCC I at 10XCmax / RCC I at 100XCmax / RCC I at 50XCmax / RCC I at 30XCmax / RCC I at 20XCmax: activity relative to DMSO-treated controls (control set as 1 = 100%)
In short: (§1)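 Rat submitochondrial particles (1 mg/ml) were treated with test compounds for 15 min. RCC IV, like RCC III, was monitored at 550 nm every 10 s for 2 min, and RCC I/V at 340 nm each minute for 6 min. DMSO samples defined unit activity.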

RCC II = biological target: T1, RCC II (Rattus norvegicus, UniProt P21913+Q641Z9+Q6PCT8+Q920L2); assay: RCC II activity in submitochondrial particles; format: biochemical; design: key: activity relative to DMSO-treated controls (control set as 1 = 100%); details: DMSO treated samples set as 1
T1 construct: Submitochondrial particles were prepared by subjecting the intact mitochondria to three successive freeze–thaw cycles; from tissue; host or cells: rat liver mitochondria, used as submitochondrial particles
T1 sequence (Q920L2 35-656): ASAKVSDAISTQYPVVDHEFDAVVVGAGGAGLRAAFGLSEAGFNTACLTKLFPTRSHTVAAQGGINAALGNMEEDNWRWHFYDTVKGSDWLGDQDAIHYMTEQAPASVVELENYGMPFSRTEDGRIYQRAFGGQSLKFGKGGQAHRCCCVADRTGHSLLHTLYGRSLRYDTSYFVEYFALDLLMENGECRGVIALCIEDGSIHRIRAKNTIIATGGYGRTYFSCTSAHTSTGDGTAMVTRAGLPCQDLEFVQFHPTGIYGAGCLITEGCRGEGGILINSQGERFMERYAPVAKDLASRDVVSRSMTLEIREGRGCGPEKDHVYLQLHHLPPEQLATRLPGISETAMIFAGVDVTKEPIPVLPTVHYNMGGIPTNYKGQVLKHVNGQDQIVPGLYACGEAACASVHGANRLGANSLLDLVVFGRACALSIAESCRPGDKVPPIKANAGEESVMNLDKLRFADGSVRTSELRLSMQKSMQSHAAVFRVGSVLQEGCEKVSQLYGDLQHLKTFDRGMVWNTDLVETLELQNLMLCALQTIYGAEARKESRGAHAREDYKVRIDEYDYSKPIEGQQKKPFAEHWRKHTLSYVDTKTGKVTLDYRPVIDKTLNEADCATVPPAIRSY
T1 sequence (P21913 31-282): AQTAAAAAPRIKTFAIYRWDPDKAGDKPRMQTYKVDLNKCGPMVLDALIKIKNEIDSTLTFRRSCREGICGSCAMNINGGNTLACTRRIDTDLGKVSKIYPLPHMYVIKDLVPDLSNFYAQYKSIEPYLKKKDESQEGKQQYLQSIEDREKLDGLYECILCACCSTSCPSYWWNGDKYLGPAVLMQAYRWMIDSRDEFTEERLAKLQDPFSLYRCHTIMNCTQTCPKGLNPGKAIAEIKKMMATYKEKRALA
T1 sequence (Q641Z9 1-169): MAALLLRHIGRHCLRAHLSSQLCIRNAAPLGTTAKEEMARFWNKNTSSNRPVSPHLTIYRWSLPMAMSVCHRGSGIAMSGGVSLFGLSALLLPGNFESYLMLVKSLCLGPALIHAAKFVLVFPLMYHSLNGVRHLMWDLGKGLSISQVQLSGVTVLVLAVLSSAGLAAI
T1 sequence (Q6PCT8 57-159): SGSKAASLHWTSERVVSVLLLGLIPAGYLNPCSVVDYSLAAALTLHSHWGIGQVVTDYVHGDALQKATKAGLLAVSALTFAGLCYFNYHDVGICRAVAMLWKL
In short: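 Activity relative to DMSO (set as 1) after 15-min exposure of submitochondrial particles (1 mg/ml) to compound. RCC I is defined as rotenone-sensitive activity and RCC II is followed at 600 nm over 6 min.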

RCC V = RCC V activity in submitochondrial particles; format: biochemical, rat; details: 5XCmax; DMSO treated samples set as 1; also: key: 0 indicates that the drug had no effects (negative)
In short: as §1

[7] = test system: isolated rat liver mitochondria; assay: Mitochondrial inner membrane potential (MMP), Rhodamine 123; format: biochemical; details: difference in signal between KI and DMSO treated samples at the end of experiments
Source text: Fig. 3 KI effects on mitochondrial inner membrane potential (MMP). […] In a, c, data are means and standard derivations from three separate experiments. *p < 0.05 as compared to DMSO-treated samples at the end of experiments. In b, data are means of two independent experiments

[8] = test system: isolated rat liver mitochondria; assay: Mitochondrial swelling (absorbance at 535 nm); format: biochemical; details: difference in signal between KI and DMSO treated samples at the end of experiments; as to Swelling 5XCmax: key: 0 indicates that the drug had no effects (negative)
[9] = ref product labeling; cited from earlier work
[10] = human therapeutic Cmax at FDA recommended dosages, ref product labeling and drug approval packages at the official FDA website
[11] = 1XCmax, DMSO treated samples set as 1
[12] = 2.5XCmax, DMSO treated samples set as 1
[13] = 5XCmax, DMSO treated samples set as 1
[14] = 10XCmax, DMSO treated samples set as 1
[15] = 20XCmax, DMSO treated samples set as 1
[16] = 30XCmax, DMSO treated samples set as 1

## CS(=O)(=O)CCNCc1ccc(-c2ccc3ncnc(Nc4ccc(OCc5cccc(F)c5)c(Cl)c4)c3c2)o1 [Lapatinib]
[1]; concentrations equal to 100-fold Cmax
  mitochondrial injury: mitochondrial injury was induced
[2]; in vivo
  labeling for DILI: BBW: fatal DILI
[2]; ref FDA product labeling
  DILI potential (based on labeling): 1

## C=CC(=O)Nc1cc(Nc2nccc(-c3cn(C)c4ccccc34)n2)c(OC)cc1N(C)CCN(C)C [Osimertinib]
[1]
  lowest concentration causing significant mitochondrial toxicity: 30 fold Cmax
[3]
  lowest concentration causing cytochrome c release: 100 fold Cmax
[4]; [10]
  Cmax: 0.5 µM
[5]
  lowest concentration triggering ROS overproduction: 30 fold Cmax

## N#CC[C@H](C1CCCC1)n1cc(-c2ncnc3[nH]ccc23)cn1 [Ruxolitinib]
[6]; 20-fold Cmax
  Glutamate/malate driven respiration State 3: 0.62 ± 0.05
  Glutamate/malate driven respiration State 4: 0.81 ± 0.05
  Succinate-driven respiration State 3: 0.90 ± 0.13
  Succinate-driven respiration State 4: 1.00 ± 0.14
[6]; 30-fold Cmax
  Glutamate/malate driven respiration State 3: 0.54 ± 0.02
  Glutamate/malate driven respiration State 4: 1.00 ± 0.09
  Succinate-driven respiration State 3: 1.05 ± 0.11
  Succinate-driven respiration State 4: 1.08 ± 0.09
[6]; 50-fold Cmax
  Glutamate/malate driven respiration State 3: 0.49 ± 0.06
  Glutamate/malate driven respiration State 4: 0.97 ± 0.20
  Succinate-driven respiration State 3: 0.87 ± 0.08
  Succinate-driven respiration State 4: 1.07 ± 0.07
[6]; 100-fold Cmax
  Glutamate/malate driven respiration State 3: 0.28 ± 0.06
  Glutamate/malate driven respiration State 4: 0.71 ± 0.08
  Succinate-driven respiration State 3: 0.99 ± 0.03
  Succinate-driven respiration State 4: 1.17 ± 0.12
[6]; tested at 1 to 100-fold Cmax
  lowest concentration significantly affecting mitochondrial oxygen consumption: 20 fold Cmax
[1]
  lowest concentration causing significant mitochondrial toxicity: 20 fold Cmax
[3]
  lowest concentration causing cytochrome c release: 50 fold Cmax
[4]; [10]
  Cmax: 1.2 µM
[2]; ref FDA product labeling
  DILI potential (based on labeling): 0

## CCN(CC)CCNC(=O)c1c(C)[nH]c(/C=C2\C(=O)Nc3ccc(F)cc32)c1C [Sunitinib]
[1]; highest concentrations tested
  effects on intact mitochondria or submitochondrial particles: no effects
[4]; [10]
  Cmax: 0.12 µM
[4]; ref Porceddu et al. [2012]
  Cmax: 70.8 µM
[2]; W&P warnings and precautions, BBW black box warnings, ref FDA product labeling
  labeling for DILI: BBW: fatal DILI
[2]; ref FDA product labeling
  DILI potential (based on labeling): 1

## COc1cc2nccc(Oc3ccc(NC(=O)C4(C(=O)Nc5ccc(F)cc5)CC4)cc3)c2cc1OC [cabozantinib malate]
[6]; [11]
  State 3 respiration driven by succinate at 1XCmax: 0
  State 4 respiration driven by succinate at 1XCmax: 0
[6]; [12]
  State 3 respiration driven by succinate at 2.5XCmax: 0
  State 4 respiration driven by succinate at 2.5XCmax: 0
[6]; [13]
  State 3 respiration driven by succinate at 5XCmax: 0
  State 4 respiration driven by succinate at 5XCmax: 0
[6]; [14]
  State 3 respiration driven by succinate at 10XCmax: 0
  State 4 respiration driven by glutamate/malate at 10XCmax: 1.46±0.08
  State 4 respiration driven by succinate at 10XCmax: 1.23±0.11
[6]; [15]
  State 3 respiration driven by succinate at 20XCmax: 0
  State 4 respiration driven by glutamate/malate at 20XCmax: 1.30±0.15
  State 4 respiration driven by succinate at 20XCmax: 1.24±0.05
[6]; [16]
  State 3 respiration driven by succinate at 30XCmax: 0
  State 4 respiration driven by glutamate/malate at 30XCmax: 1.55±0.06
  State 4 respiration driven by succinate at 30XCmax: 1.35±0.18
RCC I; [14]
  RCC I at 10XCmax: 0
RCC I; 30XCmax, DMSO-treated = 100
  RCC I at 30XCmax: 80.97±2.99
RCC II; 1.0XCmax
  RCC II at 1.0XCmax: 0
RCC II; 2.5XCmax
  RCC II at 2.5XCmax: 0
RCC II; 5XCmax
  RCC II at 5XCmax: 0
RCC II; 10XCmax
  RCC II at 10XCmax: 0
RCC II; 20XCmax
  RCC II at 20XCmax: 0
RCC II; 30XCmax
  RCC II at 30XCmax: 79.26±6.01
RCC V
  RCC V at 5XCmax: 0
[7]; 1XCmax
  MMP measured by Rhodamine 123 at 1XCmax: 0
[7]; 2.5XCmax
  MMP measured by Rhodamine 123 at 2.5XCmax: 0
[7]; 5XCmax
  MMP measured by Rhodamine 123 at 5XCmax: 0
[7]; 10XCmax
  MMP measured by Rhodamine 123 at 10XCmax: 945±179*
[7]; 20XCmax
  MMP measured by Rhodamine 123 at 20XCmax: 1828±818*
[7]; 30XCmax
  MMP measured by Rhodamine 123 at 30XCmax: 2071±803*
[8]; 1XCmax
  Swelling 1XCmax: 0
[8]; 2.5XCmax
  Swelling 2.5XCmax: 0
[8]; 5XCmax
  Swelling 5XCmax: 0
[8]; 10XCmax
  Swelling 10XCmax: 0
[8]; 20XCmax
  Swelling 20XCmax: 0.48±0.01
[8]; 30XCmax
  Swelling 30XCmax: 0.46±0.01
[3]; 1XCmax, positive control alamethicin treated samples
  Cytochrome c release 1XCmax: 0
[3]; 2.5XCmax, positive control alamethicin treated samples
  Cytochrome c release 2.5XCmax: 0
[3]; 5XCmax, positive control alamethicin treated samples
  Cytochrome c release 5XCmax: 0
[3]; 10XCmax, positive control alamethicin treated samples
  Cytochrome c release 10XCmax: 0
[3]; 20XCmax, positive control alamethicin treated samples
  Cytochrome c release 20XCmax: 0
[3]; 30XCmax, positive control alamethicin treated samples
  Cytochrome c release 30XCmax: 0
[4]; human therapeutic maximal blood concentration, ref product labeling
  Cmax (ng or µg/ml): 1.64 µg/mL
[4]; read-out: Cmax at µM, human therapeutic maximal blood concentration, ref product labeling
  Cmax: 2.58 µM
[2]; 1 DILI positive, 0 negative according to labeling, ref product labeling
  DILI potential (based on labeling): 0
[9]
  Potential for cardiotoxicity (based on labeling): 0
[5]; [11]
  ROS measured by CM-H2DCFDA at 1XCmax: 0
[5]; [12]
  ROS measured by CM-H2DCFDA at 2.5XCmax: 0
[5]; [13]
  ROS measured by CM-H2DCFDA at 5XCmax: 0
[5]; [14]
  ROS measured by CM-H2DCFDA at 10XCmax: 0
[5]; [15]
  ROS measured by CM-H2DCFDA at 20XCmax: 0
[5]; [16]
  ROS measured by CM-H2DCFDA at 30XCmax: 0
